The values that follow come from article PMC9919513, “A Practical Approach to Bicyclic Carbamoyl Pyridones with Application to the Synthesis of HIV-1 Integrase Strand Transfer Inhibitors” (Molecules, 2023).

The assay has as its system HIV-1 vectors that carry WT IN. The assay is described as follows: Single-round HIV-1 replication antiviral assay, wild-type IN. Conditions: for EC50: 48 h; for Ratio of the antiviral potencies after and before hydrogenation (WT): EC50 of saturated 7 over EC50 of unsaturated 6, WT IN. The class given is cell-based. The protocol:
The bicyclic metal chelating carbamoyl pyridone moiety is common to second-generation tricyclic INSTIs (3, 4, and 5, Figure 1). Analogs of the current study are simplified analogs that lack a third ring. […] The halogen substitution pattern of the benzylamide moiety can affect inhibitory potencies of INSTIs. We determined the antiviral potencies of our compounds in single round HIV-1 replication assays using viral constructs with wild-type IN [31]. Cytotoxicities were determined as previously described. […] In general, the potencies of bicyclic analogs 6 having an unsaturated bond at the C4 position were insensitive to differences in N-methyl substituents. […] Analogs 6g and 6h represent simplified analogs of DTG (3) and CAB (5), respectively, in which the third ring (C-ring) is opened and having doble bond in B-ring, but lacking α-methyl stereochemistry.
Human embryonic kidney cell culture cell line 293 was acquired from the American Type Culture Collection (ATCC). The human osteosarcoma cell line, HOS, was obtained from Dr. Richard Schwartz (Michigan State University, East Lansing, MI, USA) and grown in Dulbecco’s modified Eagle’s medium (Invitrogen, Carlsbad, CA, USA) supplemented with 5% (v/v) fetal bovine serum, 5% newborn calf serum, and penicillin (50 units/mL) plus streptomycin (50 µg/mL; Quality Biological, Gaithersburg, MD, USA). The transfection vector, pNLNgoMIVR-ΔLUC was made from pNLNgoMIVR-ΔEnv.HSA by removing the HSA reporter gene and replacing it with a luciferase reporter gene between the NotI and XhoI restriction sites. To produce the new IN mutant S230N used in this study, the IN open reading frame was removed from pNLNgoMIVR-ΔENV.LUC by digestion with KpnI and SalI, and the resulting fragment was inserted between the KpnI and SalI sites of pBluescript KS+. Using that construct as the wild-type template, we prepared the following HIV-1 IN mutant S230N using the QuikChange II XL site-directed mutagenesis kit (Agilent Technologies, Santa Clara, CA, USA) protocol. The following sense oligonucleotides were used with matching cognate antisense oligonucleotides (not shown) (Integrated DNA Technologies, Coralville, IA, USA) in the mutagenesis: S230N 5′-[…]-3′. The DNA sequence of the IN mutant S230N construct was verified independently by DNA sequence determination. The mutated IN coding sequences from pBluescript KS+ were then subcloned into pNLNgoMIVR-ΔEnv.LUC (between the KpnI and SalI sites) to produce mutant HIV-1 constructs, which were also checked by DNA sequencing. […]. On the day prior to transfection, 293 cells were plated on 100 mm diameter dishes at a density of 1.5 × 10^6 cells per plate. Next, 293 cells were transfected with 16 µg of pNLNgoMIVR^-ΔLUC and 4 µg of pHCMV-g (obtained from Dr. Jane Burns, University of California, San Diego) using the calcium phosphate method. At approximately 6 h after the calcium phosphate precipitate was added, 293 cells were washed twice with phosphate-buffered saline (PBS) and incubated with fresh media for 48 h. The virus-containing supernatants were then harvested, clarified by low-speed centrifugation, filtrated, and diluted for preparation in antiviral infection assays. On the day prior to the screen, HOS cells were seeded in a 96-well luminescence cell culture plate at a density of 4000 cells in 100 µL per well. On the day of the screen for cellular cytotoxicity determination, cells were treated with compounds from a concentration range of 250 µM to 0.05 µM and then incubated at 37 °C for 48 h. On the day of the screen for antiviral activity infection assays, cells were treated with compounds from a concentration range of 5 µM to 0.0001 µM using 11 serial dilutions and then incubated at 37 °C for 3 h. After compound incorporation and activation in the cell, 100 µL of virus-stock (WT or mutant) diluted to achieve a luciferase signal between 0.2 and 1.5 Relative Luciferase Units (RLUs) was added to each well and further incubated at 37 °C for 48 h. […]

Where [1] appears, read: Human immunodeficiency virus 1, HOS, read-out: EC50, antiviral potency, WT IN, VSV-g-pseudotyped HIV-1 luciferase vector with WT IN, HOS cells, 48 h.
The mark [2] stands for this setting: read-out: EC50, antiviral potency, WT IN, VSV-g-pseudotyped HIV-1 luciferase vector with WT IN, HOS cells.

Read-outs that look alike come from different tables or passages of the source.

Usually EC50 stands for the midpoint of the concentration-response curve. In the case of `O=C(NCc1ccc(F)cc1F)c1cn2ccn(CCCCCO)c(=O)c2c(O)c1=O` [Compound 6d, N-(2,4-Difluorobenzyl)-9-hydroxy-2-(5-hydroxypentyl)-1,8-dioxo-1,8-dihydro-2H-pyrido [1,2-a]pyrazine-7-carboxamide], the 50% effective concentration (EC50) runs as follows: under setting [1], ~11 nM; under setting [2], 10.8 ± 1.7 nM.
Take `O=C(NCc1ccc(F)cc1F)c1cn2c(c(O)c1=O)C(=O)N(CCCCCCO)CC2` [Compound 7c, N-(2,4-Difluorobenzyl)-9-hydroxy-2-(6-hydroxyhexyl)-1,8-dioxo-1,3,4,8-tetrahydro-2H-pyrido [1,2-a]pyrazine-7-carboxamide]: the “Ratio of the antiviral potencies after and before hydrogenation (WT)” value was 6.6. Further, the half-maximal effective concentration (EC50) under setting [1] came out at 31.7 ± 3.8 nM.
With `O=C(NCc1ccc(F)cc1F)c1cn2ccn(CCCCCCO)c(=O)c2c(O)c1=O` [Compound 6c, N-(2,4-Difluorobenzyl)-9-hydroxy-2-(6-hydroxyhexyl)-1,8-dioxo-1,8-dihydro-2H-pyrido [1,2-a]pyrazine-7-carboxamide], the EC50 under setting [1] is 4.8 ± 0.9 nM.
Turning to `O=C(NCc1ccc(F)cc1F)c1cn2c(c(O)c1=O)C(=O)N(CCCCO)CC2` [Compound 7e, N-(2,4-Difluorobenzyl)-9-hydroxy-2-(4-hydroxybutyl)-1,8-dioxo-1,3,4,8-tetrahydro-2H-pyrido [1,2-a]pyrazine-7-carboxamide], the “Ratio of the antiviral potencies after and before hydrogenation (WT)” value came out at 4.6. Also, the 50% effective concentration (EC50) under setting [1] worked out at 75.7 ± 7.4 nM.
On to `O=C(NCc1ccc(F)cc1F)c1cn2ccn(CCCCO)c(=O)c2c(O)c1=O` [Compound 6e, N-(2,4-Difluorobenzyl)-9-hydroxy-2-(4-hydroxybutyl)-1,8-dioxo-1,8-dihydro-2H-pyrido [1,2-a]pyrazine-7-carboxamide], for which the EC50 is, setting by setting: under setting [1], ~17 nM; under setting [2], 16.6 ± 2 nM.
